From patent publication EP0326134A1, “4-Amino-2,3-disubstituted-6,7-dihydro-5H-1-pyridine derivatives, process for their preparation and medicaments containing them” (NAUCHNO-ISSLEDOVATELSKY INSTITUT TEKHNOLOGII I BEZOPASNOSTI …, priority 1988, dated 1989)
pIC50, pKi: −log10 of the molar value. Where a name gives a salt, the structure may show the parent alone. Read-outs that look alike come from different tables or passages of the source.

What was measured:
[1] = Side effects and CNS/behaviour: tremor (TD50), sedative and m-cholinomimetic effects; assay type: in vivo; conditions: for Verhältnis TD50 zu ED50 / selectivity ratio: ED50 = dose blocking the effect of Skopolamin in 50 % of the animals (passive avoidance, mice); for TD50 (Tremor) / TD50: toxic dose causing tremor in 50 % of the animals; for selectivity ratio / TD50: in vivo; for selectivity ratio: read-out: Verhältnis TD50 zu ED50
Description: Von Interesse ist der Einfluß der erfindungsgemäßen Verbindungen auf das ZNS und das Verhalten der Tiere.

[2] = tested on: Na -Durchlässigkeit der Membrane des Ranvier-Schnürringes; assay: Na+ permeability of the node of Ranvier membrane, voltage clamp; set-up: species or system Frosches; conditions: node of Ranvier, frog sciatic nerve fibres, voltage clamp; concentration giving 50 % block of ion permeability; read-out: Blockierung der Na^+-Durchlässigkeit der Membrane Ic50 (Mol)
Description: (§1) Untersucht wurden die Wirkmechanismen der erfindungsgemäßen Verbindungen: • 1. Die Wirkung auf Acetylcholinesterase menschlicher Erythrozyten auf spektrofotometrischem Wege. • 2. Die Wirkung auf die K - und Na -Durchlässigkeit der Membrane des Ranvier-Schnürringes (s. Fox T.M. et al. "Modification of ionic membrane currrents of Ranvier nodes by UV-radiation under voltage clamp conditions", Experientia, 27, 1289-1290 /1971/ und Arhom P. et al. "Local anesthetics: effects on permeability properties of nodal membrane in myelynated nerve fibres from xenopus". Acta physiol. Scand. 91, 11-21 /1974/) der Nervenfasern des Hüftnervs des Frosches unter Anwendung der Methode der Messung der Membranspannung (Voltage-clampmethode) (s. Derksen H.E. "Axon membrane voltage fluctuations", Acta Physiol., Pharmacol Neer, 13, 373-466 /1965/).
(§2) Alle erfindungsgemäßen Verbindungen sind Blocker für die K^+-Durchlässigkeit der Membrane analog dem Amyridin. Die Salze der bicyclischen Basen blockieren jedoch stärker die Na -Durchlässigkeit der Membrane, was sich mit ihren sedativen und analgetischen Eigenschaften in Verbindung bringen läßt.

Uterus der Ratte = assay: Contractile activity of smooth muscle: rat uterus; conditions: n = 9; for activity at 100 µM / activity at 10 µM: Rattus norvegicus; for activity at 100 µM: Konzentration 1.10^-4 Mol; for Acetylcholin 1.10^-6 (Mol): Dauer, Min. / Serotonin 1.10^-6 (Mol): Dauer, Min. / activity at 10 µM: Konzentration 1.10^-5 Mol
Description: (§3) In Versuchen an glattmpskulären Organen (Uterus, Samenleiter der Ratte und Krummdarm des Meerschweinchens) wurden die Wirkung der erfindungsgemäßen Verbindungen auf die kontraktile Aktivität der glatten Muskeln und ihre Reaktionen auf den Einfluß von Acetylcholin, Serotonin, Adrenalin und KCI als Agonisten untersucht. Mit Hilfe eines Schreibers wurden die Amplitude und die Dauer der Kontraktion der glatten Muskeln unter Verwendung eines Geräts vom Typ Mechanstron-untersucht.

[3] = tested on: durch Skopolamin hervorgerufene Amnesie; assay: Dark avoidance assay (passive avoidance), scopolamine-induced amnesia; assay type: in vivo, Mäusen; conditions: for Einfluß auf das Gedächtnis: Zahl der Tiere in %, bei denen die Skopolaminwirkung aufgehoben wurde: mice, compound s.c. 5 min before learning, Skopolamin i.p. 30 min before; for antiamnestische Wirkung: in words, compared with Amyridin
Description: Die Mäuse wurden dabei in den hellen Abschnitt der Kammer gegeben, wonach die Latenzzeit für den Übertritt in die dunkle Kammer, in der die Tiere einem Stromschlag von 0,5 mA ausgesetzt waren, registriert wurde. Danach erhöhte sich die Latenzzeit für den Übertritt in den dunklen Abschnitt und verringerte sich die Aufenthaltsdauer. 30 Minuten vor dem Versuch wurden den Mäusen i.p. […] Gedächtnisstörungen hervorrufendes Skopolamin als Cholinblocker injiziert. Die erfindungsgemäßen Verbindungen wurden s.c. 5 Minuten vor dem Lernvorgang injiziert. Das Skopolamin verkürzt die Latenzzeit für den Übertritt in die dunkle Kammer, die erfindungsgemäßen Verbindungen stellen jedoch die Latenzzeitwerte wie bei der Kontrollgruppe wieder her oder bedingen ein geringfügiges Überschreiten dieser Werte (siehe Tabelle 2). Gleichzeitig wird die Aufenthaltsdauer der Tiere im dunklen Abschnitt der Kammer auf 36 bis 45 Hundertstel des Ausgangswerts verringert.

[4] = Acute toxicity, single intraperitoneal injection, probit analysis (LD50); assay type: in vivo, Mäusen; conditions: mice, i.p.
Description: Ihre akute Toxizität wurde an Mäusen (einmalige intraperitoneale Injektion) nach der Methode der Probit-Analyse nach Zichtfield, Wilcoxon, t949 untersucht. In Tabelle 2 sind die Parameter der akuten Toxizität (LDso) angegeben, die eine mäßige Toxizität der erfindungsgemäßen Verbindungen belegen.

[5] = tested on: K -Durchlässigkeit der Membrane des Ranvier-Schnürringes; assay: K+ permeability of the node of Ranvier membrane, voltage clamp; set-up: species or system Frosches; conditions: node of Ranvier, frog sciatic nerve fibres, voltage clamp; concentration giving 50 % block of ion permeability; read-out: Blockierung der K^+-Durchlässigkeit der Membrane Ic50 (Mol)
Description: as §1, §2

Samenleiter der Ratte = assay: Contractile activity of smooth muscle: rat vas deferens; conditions: Rattus norvegicus, Samenleiter der Ratte, n = 9, read-out: Adrenalin 1.10^-6: Amplitude, % bezogen auf d.Kontrolle; for activity at 100 µM: Konzentration 1.10^-4 Mol; for activity at 10 µM: Konzentration 1.10^-5 Mol
Description: as §3

[6] = biological target: T1, Acetylcholinesterase menschlicher Erythrozyten (Homo sapiens, UniProt P22303); assay: Acetylcholinesterase inhibition, spectrophotometric; assay type: biochemical; conditions: Acetylcholinesteraseinhibierung bei menschlichen Erythrozyten IK, (Mol), human erythrocyte enzyme
T1 construct: Acetylcholin-esteraseinhi-bierung bei menschlichen Erythrozyten; from tissue; host or cells: human erythrocytes
T1 sequence (P22303 other isoform, or with tags, fused parts or gaps): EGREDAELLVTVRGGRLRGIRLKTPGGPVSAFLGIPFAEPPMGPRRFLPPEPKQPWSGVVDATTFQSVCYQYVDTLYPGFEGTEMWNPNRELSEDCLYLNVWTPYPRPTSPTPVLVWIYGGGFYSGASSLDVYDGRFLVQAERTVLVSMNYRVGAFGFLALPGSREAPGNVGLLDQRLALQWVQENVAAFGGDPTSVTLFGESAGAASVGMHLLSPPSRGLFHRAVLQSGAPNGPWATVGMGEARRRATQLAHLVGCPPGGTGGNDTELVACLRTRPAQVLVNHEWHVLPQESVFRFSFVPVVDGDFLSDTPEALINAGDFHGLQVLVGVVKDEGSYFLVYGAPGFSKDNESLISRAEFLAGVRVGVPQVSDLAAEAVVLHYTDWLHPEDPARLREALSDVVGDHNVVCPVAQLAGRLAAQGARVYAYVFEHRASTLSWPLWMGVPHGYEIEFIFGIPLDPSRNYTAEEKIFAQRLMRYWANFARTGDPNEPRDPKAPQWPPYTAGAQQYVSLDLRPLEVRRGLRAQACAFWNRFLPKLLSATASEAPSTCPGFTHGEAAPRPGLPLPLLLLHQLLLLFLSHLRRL
Description: Untersucht wurden die Wirkmechanismen der erfindungsgemäßen Verbindungen: • 1. Die Wirkung auf Acetylcholinesterase menschlicher Erythrozyten auf spektrofotometrischem Wege. • 2.

[7] = tested on: Nerven-Muskel-Präparat von Mäusen (n.peroneus-m.extensor digitorum longus); assay: Neuromuscular transmission in isolated nerve-muscle preparation (EPP, minEPP); conditions: for Stimulierung der Nerven-Muskelübertragung, in % der Amplitude: EPP: EPP = Endplattenpotential
Description: Der Einfluß der Stoffe auf die Nerven-Muskei-Übertragung wurde am isolierten Nerven-Muskel-Präparat von Mäusen (n.peroneus-m.extensor digitorum longus) (s. Bhattacharyya B. et al. "Neuromuscular blocking action of two hemicholinium-3 analogs" Europ. J. Pharmac. 146, 155-165 /1988/) untersucht, das von Lilly-Lösung perfundiert wurde, durch die man ein Gemisch von 02 und C02 leitete. […] Das Endplattenpotential (EPP) und das Endplattenminiaturpotential (minEPP) wurden mit Hilfe eines Magnetografen aufgezeichnet und danach mit dem Computer ausgewertet. Ermittelt wurden die Frequenz (f), die Amplitude (A) und die Dauer (t) der minEPP und der EPP (s. Tabelle 2).

[8] = Uterus der Ratte, read-out: Serotonin 1.10^-6 (Mol): Amplitude, % bezogen auf die Kontrolle
[9] = Uterus der Ratte (as head prints)
[10] = Uterus der Ratte (as head prints), ditto mark -"- repeats unverändert, read-out: Acetylcholin 1.10^-6 (Mol): Amplidude, % bezogen auf d. Kontrolle
[11] = mouse, in vivo, ip, read-out: LD50

Structure (SMILES) | Verhältnis TD50 zu ED50 [1] | TD50 (Tremor) [1] | pIC50 [2] | activity at 100 µM (Uterus der Ratte; [8]) | Einfluß auf das Gedächtnis: Zahl der Tiere in %, bei denen die Skopolaminwirkung aufgehoben wurde [3] | LD50 [4] | pIC50 [5] | activity at 100 µM (Samenleiter der Ratte) | pKi [6] | Stimulierung der Nerven-Muskelübertragung, in % der Amplitude: EPP [7] | Stimulierung der Nerven-Muskelübertragung, in % der Amplitude: minEPP [7] | Acetylcholin 1.10^-6 (Mol): Dauer, Min. (Uterus der Ratte; [9]) | Serotonin 1.10^-6 (Mol): Dauer, Min. (Uterus der Ratte; Uterus der Ratte) | selectivity ratio [1] | TD50 [1] | activity at 10 µM (Uterus der Ratte; [10]) | LD50 [4, 11] | activity at 10 µM (Samenleiter der Ratte) | antiamnestische Wirkung [3] | activity at 10 µM (Uterus der Ratte; [8])
Cc1nc2c(c(N)c1-c1ccccc1)CCC2 [Verbindung 33] | 2,4 | 15 mg/kg | 2.26 | 140% | 55% | 25 mg/kg | 2.19 | 128% | 4.32 | 20% | 42% |  |  |  |  |  |  |  |  | 
Nc1c2c(nc3c1CCC3)CCCCC2 [Verbindung 39] | 7,2 | 18 mg/kg | 2.30 |  | 72% | 50 mg/kg | 3.32 |  | 6.25 | 25% | 60% | 22±0.6 Min. | 28±0.5 Min. |  |  |  |  |  |  | 
Nc1c2c(nc3c1CCC3)CCC2 [Verbindung 36, 8-Amino-1,2,3,5,6,7-hexahydro-1-cyclopenta[b]pyrindin-hydrochlorid] |  |  | 2.28 |  | 65% |  | 3.38 |  | 6.96 | 20% | 60% |  |  | 7.5 | 15 mg/kg | 140% | 36 mg/kg | 160% |  | 
Nc1c2c(nc3c1CCC3)CCC2 [Verbindung 37, 8-Amino-1,2,3,5,6,7-hexahydro-1-cyclopenta[b]pyrindinperchlorat] | 8,2 | 18 mg/kg | 2.38 |  | 68% | 38 mg/kg | 3.35 |  | 6.82 | 30% | 66% |  |  |  |  |  |  |  |  | 
CCc1nc2c(c(N)c1C)CCC2 [Verbindung 29] | 12 | 22 mg/kg | 3.52 |  | 70% | 35 mg/kg | 3.70 |  | 5.22 | 18% | 40% |  |  |  |  |  |  |  |  | 
CCc1nc2c(c(N)c1C)CCC2 [Verbindung 28] | 11 | 20 mg/kg | 3.82 |  | 80% | 40 mg/kg | 3.92 |  | 5.21 | 22% | 48% |  |  |  |  |  |  |  |  | 
CCNc1c(C)c(C)nc2c1CCC2 [Verbindung 20, 2,3-Dimethyl-4-ethylamino-6,7-dihydro-5H-1-pyrindin] |  |  | 2.55 | 125% | 65% |  | 2.66 | 120% | 5.15 | 30% | 58% |  |  | 3.8 | 10 mg/kg |  | 18 mg/kg |  | antiamnestische Wirkung, welche die von Amyridin etwas übertraf | 
CCc1c(C)nc2c(c1N)CCC2 [Verbindung 21, 2-Methyl-3-ethyl-4-amino-6,7-dihydro-5H-1-pyrindinhydrat] |  |  | 2.49 | 118% | 68% |  | 2.46 | 115% | 5.15 | 25% | 58% |  |  | 3.8 | 10 mg/kg |  | 30 mg/kg |  | antiamnestische Wirkung, welche die von Amyridin etwas übertraf | 
CNc1c(C)c(C)nc2c1CCC2 [Verbindung 19, 2,3-Dimethy)-4-methy)amino-6,7-dihydro-5H-1-pyrindinhydrat] |  |  | 2.60 | 120% | 70% |  | 2.74 | 115% | 5.17 | 28% | 56% |  |  | 4 | 12 mg/kg |  | 16 mg/kg |  | antiamnestische Wirkung, welche die von Amyridin etwas übertraf | 
Nc1c2c(nc3c1CCC3)CCCCC2 [Verbindung 38] |  |  | 2.35 |  | 70% |  | 3.24 |  | 6.32 | 28% | 52% | 20±0.6 Min. | 25±0.8 Min. | 7.6 | 17 mg/kg | 125% | 49 mg/kg | 145% |  | 180%
CCc1nc2c(c(N)c1C)CCC2 [Verbindung 27, 2-Ethyl-3-methyl-4-amino-6,7-dihydro-5H-1-pyrindinhydrat] |  |  | 3.42 | 125% | 60% |  | 3.82 | 126% | 5.42 | 23% | 45% |  |  | 10 | 19 mg/kg |  | 30 mg/kg |  | antiamnestische Wirkung, welche die von Amyridin etwas übertraf | 
